Reference: patent US12410160B2 (Gilead Sciences, Inc., priority 2021, dated 2025)

Key:
[1] = biological target: human KHK-A (Homo sapiens (Human), UniProt P50053); experiment: KHK Biochemical Assay (IC50), ADP-Glo, KHK-A; settings: ADP-Glo; average of at least two separate assays
Procedure, shortened: (§1)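 ADP-Glo luminescence measured ADP made over a 4 h room-temperature reaction of ATP plus fructose, started after 30 min compound–enzyme pre-incubation. Buffer: 50 mM Hepes pH 7.4, 140 mM KCl, 5 mM MgCl2, 0.01% Triton-X. Enzyme was His-tagged, BL21 (DE3)-expressed, Ni-NTA-purified; compounds in 1:3 DMSO dilution series.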

[2] = biological target: human KHK-C (Homo sapiens (Human), UniProt P50053); experiment: KHK Biochemical Assay (IC50), ADP-Glo, KHK-C; settings: ADP-Glo; average of at least two separate assays
Sequence of human KHK-C (P50053 whole entry): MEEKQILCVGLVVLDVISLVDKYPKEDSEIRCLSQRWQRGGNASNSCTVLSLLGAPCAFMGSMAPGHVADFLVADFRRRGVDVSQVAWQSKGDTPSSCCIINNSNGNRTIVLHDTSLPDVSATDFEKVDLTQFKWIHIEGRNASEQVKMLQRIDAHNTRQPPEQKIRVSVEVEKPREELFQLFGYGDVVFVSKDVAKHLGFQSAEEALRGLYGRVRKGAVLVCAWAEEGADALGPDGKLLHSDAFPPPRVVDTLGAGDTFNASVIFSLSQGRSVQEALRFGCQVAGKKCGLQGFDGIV
Procedure, shortened: as §1

[3] = biological target: KHK-C expressed in NRK-52E cells (Homo sapiens (Human), UniProt P50053); experiment: KHK-C Cell-based Assay (EC50), NRK CTG, fructose-mediated ATP-depletion
Sequence of KHK-C expressed in NRK-52E cells (P50053 whole entry): as above

Sequence of human KHK-A (P50053 other isoform, or with tags, fused parts or gaps): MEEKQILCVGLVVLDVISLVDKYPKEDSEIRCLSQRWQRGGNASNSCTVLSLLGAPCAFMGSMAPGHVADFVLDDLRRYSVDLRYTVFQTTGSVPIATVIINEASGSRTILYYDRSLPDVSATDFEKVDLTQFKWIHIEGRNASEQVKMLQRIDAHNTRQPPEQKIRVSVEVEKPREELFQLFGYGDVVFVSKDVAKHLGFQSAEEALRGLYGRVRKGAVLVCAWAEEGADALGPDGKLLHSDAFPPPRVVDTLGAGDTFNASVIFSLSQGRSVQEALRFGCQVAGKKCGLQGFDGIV

Compound	IC50 [1]	IC50 [2]	EC50 [3]
C[C@H]1CCN1c1nc2c(c(-c3ccc4c(c3)CC(=O)N4)n1)CCC2 [Example 248, 5-[2-[(2S)-2-methylazetidin-1-yl]-6,7-dihydro-5H-cyclopenta[d]pyrimidin-4-yl]indolin-2-one]	79.6 nM	> 100 nM	154 nM
C[C@H]1CCN1c1nc2c(c(-c3ccc(C45CC(C(=O)O)(C4)C5)cc3)n1)CCC2 [Example 249, 3-[4-[2-[(2S)-2-methylazetidin-1-yl]-6,7-dihydro-5H-cyclopenta[d]pyrimidin-4-yl]phenyl]bicyclo[1.1.1]pentane-1-carboxylic acid]	105 nM	96.3 nM	517 nM
C[C@H]1CCN1c1nc2c(c(-c3ccc(C45CC(C(N)=O)(C4)C5)cc3)n1)CCC2 [Example 250, 3-[4-[2-[(2S)-2-methylazetidin-1-yl]-6,7-dihydro-5H-cyclopenta[d]pyrimidin-4-yl]phenyl]bicyclo[1.1.1]pentane-1-carboxamide]	196 nM	129 nM	852 nM
C[C@H]1CCN1c1nc2c(c(-c3ccc(C4(C(N)=O)CC4)cc3)n1)CCC2 [Example 252, 1-[4-[2-[(2S)-2-methylazetidin-1-yl]-6,7-dihydro-5H-cyclopenta[d]pyrimidin-4-yl]phenyl]cyclopropanecarboxamide]	783 nM	946 nM	1670 nM
C[C@H]1CCN1c1nc2c(c(-c3cccc(C4(C(=O)O)CC4)c3)n1)CCC2 [Example 253, 1-[3-[2-[(2S)-2-methylazetidin-1-yl]-6,7-dihydro-5H-cyclopenta[d]pyrimidin-4-yl]phenyl]cyclopropanecarboxylic acid]	204 nM	239 nM	2770 nM
C[C@H]1CCN1c1nc2c(c(-c3cccc(C4(C(N)=O)CC4)c3)n1)CCC2 [Example 254, 1-[3-[2-[(2S)-2-methylazetidin-1-yl]-6,7-dihydro-5H-cyclopenta[d]pyrimidin-4-yl]phenyl]cyclopropanecarboxamide]	600 nM	517 nM	607 nM
C[C@H]1CCN1c1nc2c(c(-c3ccc(C(O)C(F)F)cc3)n1)CCC2 (stereo partly drawn) [Example 256, 2,2-difluoro-1-[4-[2-[(2S)-2-methylazetidin-1-yl]-6,7-dihydro-5H-cyclopenta[d]pyrimidin-4-yl]phenyl]ethanol]	519 nM	262 nM	161 nM
C[C@H]1CCN1c1nc2c(c(-c3cnc4c(c3)NCCO4)n1)CCC2 [Example 263, 7-[2-[(2S)-2-methylazetidin-1-yl]-6,7-dihydro-5H-cyclopenta[d]pyrimidin-4-yl]-2,3-dihydro-1H-pyrido[2,3-b][1,4]oxazine]	96.2 nM	50 nM	155 nM
C[C@]1(O)CCN(c2nc3c(c(-c4ccc(C(N)=O)cc4)n2)CCC3)C1 [Example 268, 4-[2-[(38)-3-hydroxy-3-methyl-pyrrolidin-1-yl]-6,7-dihydro-5H-cyclopenta[d]pyrimidin-4-yl]benzamide]	> 5000 nM	> 5000 nM	> 5000 nM
C[C@H]1CCN1c1nc2c(c(-c3ccc4c(c3)CCO4)n1)CCC2 [Example 274, (S)-4-(2,3-dihydrobenzofuran-5-yl)-2-(2-methylazetidin-1-yl)-6,7-dihydro-5H-cyclopenta[d]pyrimidine]	204 nM	142 nM	205 nM
C[C@H]1[C@H](F)CN1c1nc2c(c(-c3cccc(CNS(C)(=O)=O)c3)n1)CCC2 [Example 284]	21.8 nM	16.4 nM	55.7 nM
C[C@H]1[C@H](O)CN1c1nc2c(c(-c3ccc4c(c3)CCNC4=O)n1)CCC2 [Example 288]	103 nM	44.3 nM	108 nM
C[C@H]1[C@H](F)CN1c1nc2c(c(-c3ccc4c(c3)CCNC4=O)n1)CCC2 [Example 289]	57.9 nM	17.5 nM	34.5 nM
C[C@H]1CCN1c1nc2c(c(-c3ccc(C(N)=O)c(Cl)c3)n1)CCC2 [Example 303, (S)-2-chloro-4-(2-(2-methylazetidin-1-yl)-6,7-dihydro-5H-cyclopenta[d]pyrimidin-4-yl)benzamide]	29.7 nM	49.7 nM	91.5 nM

Next, values leading:

IC50 [1]	IC50 [2]	EC50 [3]	Compound
126 nM	135 nM	243 nM	C[C@H]1CCN1c1nc2c(c(-c3ccc4[nH]c(=O)n(C)c4c3)n1)CCC2 [Example 251, 3-methyl-5-[2-[(2S)-2-methylazetidin-1-yl]-6,7-dihydro-5H-cyclopenta[d]pyrimidin-4-yl]-1H-benzimidazol-2-one]
49.8 nM	65.9 nM	70.7 nM	C[C@H]1CCN1c1nc2c(c(-c3ccc(C(O)C4(C#N)CC4)cc3)n1)CCC2 (stereo partly drawn) [Example 255, 1-[hydroxy-[4-[2-[(2S)-2-methylazetidin-1-yl]-6,7-dihydro-5H-cyclopenta[d]pyrimidin-4-yl]phenyl]methyl]cyclopropanecarbonitrile]
201 nM	128 nM	185 nM	C[C@H]1CCN1c1nc2c(c(-c3ccc(C(O)CF)cc3)n1)CCC2 (stereo partly drawn) [Example 257, 2-fluoro-1-[4-[2-[(2S)-2-methylazetidin-1-yl]-6,7-dihydro-5H-cyclopenta[d]pyrimidin-4-yl]phenyl]ethanol]
2000 nM	2850 nM	525 nM	C[C@H]1CCN1c1nc2c(c(-c3cccc(OC(F)F)c3)n1)CCC2 [Example 258, 4-[3-(difluoromethoxy)phenyl]-2-[(2S)-2-methylazetidin-1-yl]-6,7-dihydro-5H-cyclopenta[d]pyrimidine]
518 nM	532 nM	2320 nM	C[C@H]1CCN1c1nc(-c2cccc(C(N)=O)c2)c2c(cnn2C)n1 [Example 271, (S)-3-(1-methyl-5-(2-methylazetidin-1-yl)-1H-pyrazolo[4,3-d]pyrimidin-7-yl)benzamide]
1040 nM	618 nM	291 nM	C[C@H]1CCN1c1nc2c(c(-c3ccc4c(ccn4C)c3)n1)CCC2 [Example 275, (S)-4-(1-methyl-1H-indol-5-yl)-2-(2-methylazetidin-1-yl)-6,7-dihydro-5H-cyclopenta[d]pyrimidine]
66.6 nM	69.5 nM	110 nM	CC(O)c1cccc(-c2nc(N3CC[C@@H]3C)nc3c2CCC3)c1 (stereo partly drawn) [Example 276, 1-(3-(2-((S)-2-methylazetidin-1-yl)-6,7-dihydro-5H-cyclopenta[d]pyrimidin-4-yl)phenyl)ethan-1-ol]
11.9 nM	15.3 nM	26.7 nM	C[C@H]1CCN1c1nc2c(c(-c3cccc(CNS(C)(=O)=O)c3)n1)CCC2 [Example 277, (S)—N-(3-(2-(2-methylazetidin-1-yl)-6,7-dihydro-5H-cyclopenta[d]pyrimidin-4-yl)benzyl)methanesulfonamide]
50.5 nM	30.9 nM	71.3 nM	C[C@H]1[C@H](F)CN1c1nc2c(c(-c3cccc(NS(C)(=O)=O)c3)n1)CCC2 [Example 290, N-(3-(2-((2S,3R)-3-fluoro-2-methylazetidin-1-yl)-6,7-dihydro-5H-cyclopenta[d]pyrimidin-4-yl)phenyl)methanesulfonamide]
86.5 nM	69.9 nM	166 nM	C[C@H]1[C@H](O)CN1c1nc2c(c(-c3ccc(C(N)=O)c(F)c3)n1)CCC2 [Example 307]
